Laboratory results from US8846107B2, “In situ generation of peroxycarboxylic acids at alkaline pH, and methods of use thereof” (priority 2010, dated 2014).

Tests used:
[1] = Dispersion stability of acidified POOA solutions with dispersing agents; assay type: physicochemical
Protocol: The SLS, LAS and SOA dispersing agents were then further examined for efficacy in stabilizing and/or dispersing in 1% or lower sulfuric acid solutions. Solutions were made according to the following order (3, 6, 9, 12, 1, 4, 7, 10, 2, 5, 8, 11, 13, 14). Solution 13 was made as 1 through 12 with the addition of 50 mL of 5 grain hard water to the aliquot of alkaline reaction solution followed by swirling with the surface aliquot and then additional 50 mL of 5 grain hard water, followed within about 5 seconds by 50 mL of 5 grain 2% sulfuric acid and swirled. Solution 14 was made by direct addition of 1% sulfuric acid (5 grain) without pre-dilution, but after moments of swirling with SLS aliquot. All concentrations are shown in ppm.
For the POOA solutions the targeted peracid concentration was based upon initial average of about 5.40 wt-% of ongoing cold alkaline peracid hydrolysis according to the invention (**), wherein the aliquot was constant while POOA was increasing.
The appearance of an oil sheen was regarded as a pass or fail.

[2] = Coupling of precipitated POOA solution by surfactants and hydrotropes; assay type: physicochemical; conditions: 1000 ppm POOA in DI Water
Protocol: A variety of surfactants were analyzed for coupling and/or dispersion stabilizing of a peroxycarboxylic acid composition generated according to the methods of the invention. In particular, a peroxyoctanoic acid (POOA) composition in deionized water produced according to the invention was analyzed for coupling and/or dispersion stabilization using the dispersing agents set forth in Table 14A.
Given the very limited water solubility of POOA in its protonated form, acidification of the alkaline perhydrolysis solutions of the same causes immediate precipitation and rapid phase separation. In this example various surfactants and hydrotropes were evaluated for their ability to couple the POOA. In Table 14A it can be seen that the most efficient agents for coupling an already precipitated solution of POOA were samples I and II.

[3] = test system: Escherichia coli ATCC 11229; assay: Sanitizing efficacy of in situ generated peroxycarboxylic acids; assay type: cell-based; conditions: 25° C.
Protocol: A study was run to evaluate the sanitizing efficacy of mixtures of peroxycarboxylic acids generated in situ from esters under alkaline conditions. For this study the following ester based peroxycarboxylic acid forming compositions were used.
The above Peroxycarboxylic acid premixes were then tested alone at various concentrations, and mixed at various concentrations against Staphylococcus aureus ATCC 6538, and Escherichia coli ATCC 11229.
The test substances were tested against Staphylococcus aureus ATCC 6538, and Escherichia coli ATCC 11229 at 25° C.±1° C. for 30 seconds. A neutralizer screen was performed as part of the testing to verify that the neutralizer adequately neutralized the product and was not detrimental to the tested organisms.

[4] = 35 ppm POAA, pH 5.00, 30 seconds
[5] = 61 ppm POAA, pH 5.00, 30 seconds
[6] = 13 ppm POOA, pH 4.98, 30 seconds
[7] = 15 ppm POOA, pH 5.01, 30 seconds
[8] = 20 ppm POOA, pH 4.98, 30 seconds

With CCCCCCCCCCCCOS(=O)(=O)[O-].[Na+] [I, Sodium Lauryl Sulfate] the “dispersant performance for acidified POOA” value ([1]; acidic, aqueous dispersions of POOA) was “exceptional dispersant” and the “Amount of (B) Required for Coupling (g/200 g aq POOA)” value (“Amount of (B) Required for Coupling” for short) [2] was 0.64 g/200 g aq POOA.
In the case of CC(=O)OO [POAA, peroxyacetic acid], the “Average Log10 Survivors” value [3, 4] is reported as 7.27 Log10, the “Log Reduction” value [3, 4] is reported as 0.78 Log and the “Survivors (CFU/mL)” value [3, 4] is reported as 1.85 × 10^7 CFU/mL. For the same compound, the “Average Log10 Survivors” value [3, 5] was 3.93 Log10, the “Log Reduction” value [3, 5] was 4.12 Log and the “Survivors (CFU/mL)” value [3, 5] was 3.0 × 10^3 CFU/mL.
With CCCCCCCC(=O)OO [POOA, peroxyoctanoic acid] the “Average Log10 Survivors” value [3, 6] was 7.59 Log10, the “Log Reduction” value [3, 6] was 0.46 Log and the “Survivors (CFU/mL)” value [3, 6] was 4.22 × 10^7 CFU/mL. The “Average Log10 Survivors” value [3, 7] was 7.15 Log10, the “Log Reduction” value [3, 7] was 0.90 Log and the “Survivors (CFU/mL)” value [3, 7] was 1.06 × 10^7 CFU/mL. For the same compound, the “Average Log10 Survivors” value [3, 8] was 5.85 Log10 and the “Log Reduction” value [3, 8] was 2.20 Log.
In the case of CCCCCCCCS(=O)(=O)[O-].[Na+] [VII, Sodium octanesulfonate], the “Amount of (B) Required for Coupling” value [2] is reported as 6.60 g/200 g aq POOA.
With CCCCC(CC)COC(=O)CC(C(=O)OCC(CC)CCCC)S(=O)(=O)[O-].[Na+] (centres unmarked) [X, Sodium dioctyl Sulfosuccinates] the “Amount of (B) Required for Coupling” value [2] was >2.0 g/200 g aq POOA.
In the case of Alkyl Polyglycosides [VI], the “Amount of (B) Required for Coupling” value [2] is reported as 2.46 g/200 g aq POOA.
In the case of Linear Aryl Sulfonate [II], the “oil sheen at 23 h” value ([1]; acidified POOA in 10,000 ppm H2SO4, oil sheen regarded as fail) is reported as “minimal surface oil”, the “Amount of (B) Required for Coupling” value [2] is reported as 0.65 g/200 g aq POOA and the “Amount of (B) Required for Coupling” value ([2]; listed as LAS) is reported as 0.64 g/200 g aq POOA.
For Sodium Lauryl Ether Sulfate [III], the “Amount of (B) Required for Coupling” value [2] was >0.94 g/200 g aq POOA.
